The values that follow are results of earlier work, collected in patent US11318148B2, “Preservative-free treprostinil devices” (SteadyMed, Ltd., priority 2014, dated 2022).

The conditions of series [1]: has to be kept on ice during administration.
For series [2] the following is noted: in vivo.

In general, half-life refers to the time in which the quantity being followed falls by half. Consider `CCCCC[C@H](O)/C=C/[C@@H]1[C@H]2C/C(=C/CCCC(=O)O)O[C@H]2C[C@H]1O` [Flolan], for which, in series [1], the “stability at room temperature” value was “unstable at room temperature”. Besides, the half-life in series [2] is 3 to 5 min.
